According to ChEMBL document CHEMBL1201862, “PubChem BioAssay data set” (2004):
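In this assay, cells in 96-well plates receive the compound at five concentrations for 48 hours. Endpoints are linearly interpolated between the surrounding concentrations. Here, GI50 denotes the concentration required for 50% inhibition of growth.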 Active and inactive are the calls of the source. Rule as the data show it: active = GI50 up to about 1.1 µM and inactive = higher.

Key:
Experiment in all cases: NCI-60 cell line screen, 48 h
SW-620 = system: SW-620
SF-295 = system: SF-295
SR = system: SR
MOLT-4 = system: MOLT-4
U-251 = system: U-251
Hs-578T = system: Hs-578T
UO-31 = system: UO-31
HCT-15 = system: HCT-15
SF-539 = system: SF-539
SK-MEL-2 = system: SK-MEL-2
NCI/ADR-RES = system: NCI/ADR-RES
HCC 2998 = system: HCC 2998
MDA-MB-231 = system: MDA-MB-231
CAKI-1 = system: CAKI-1
UACC-257 = system: UACC-257
MDA-MB-435 = system: MDA-MB-435
KM12 = system: KM12
OVCAR-5 = system: OVCAR-5
CCRF-CEM = system: CCRF-CEM
HL-60 = system: HL-60

Row | Compound | GI50 (SW-620) | GI50 (SF-295) | GI50 (SR) | GI50 (MOLT-4) | GI50 (U-251) | GI50 (Hs-578T) | GI50 (UO-31) | GI50 (HCT-15) [µM] | GI50 (SF-539) | GI50 (SK-MEL-2) | GI50 (NCI/ADR-RES) | GI50 (HCC 2998) | GI50 (MDA-MB-231) | GI50 (CAKI-1) | GI50 (UACC-257) | GI50 (MDA-MB-435) | GI50 (KM12) | GI50 (OVCAR-5) | GI50 (CCRF-CEM) | GI50 (HL-60)
1 | O=C1N(CN2CCOCC2)CN(CN2CCOCC2)C(=O)N1Cc1ccc(-c2ccc(CN3C(=O)N(CN4CCOCC4)CN(CN4CCOCC4)C3=O)cc2)cc1 | 8.38 µM (inactive) | 23.2 µM (inactive) | 2.08 µM (inactive) | 4.19 µM (inactive) | 16.1 µM (inactive) | 26.2 µM (inactive) | 19.4 µM (inactive) | 9.55 | > 27.8 µM (inactive) | 6.55 µM (inactive) | 17.3 µM (inactive) | 11 µM (inactive) | 26.5 µM (inactive) | 14.2 µM (inactive) | 13.8 µM (inactive) | 2.63 µM (inactive) | 4.73 µM (inactive) | 20.2 µM (inactive) |  | 
2 | O=c1[nH]c(=O)n(C2OC(CO)C(O)C2O)c2ncc(-c3ccc(-c4ccccc4)cc3)nc12 (configuration not stated) | > 20 µM (inactive) | > 20 µM (inactive) | > 20 µM (inactive) | > 20 µM (inactive) | > 20 µM (inactive) | > 20 µM (inactive) | > 20 µM (inactive) | > 20 | > 20 µM (inactive) | > 20 µM (inactive) | > 20 µM (inactive) | > 20 µM (inactive) | > 20 µM (inactive) | > 20 µM (inactive) | > 20 µM (inactive) | > 20 µM (inactive) | > 20 µM (inactive) | > 20 µM (inactive) | > 20 µM (inactive) | 
3 | CC(C)C[C@H](NC(=O)CCc1cccc2ccccc12)B(O)O | 0.676 µM (active) | 1.74 µM (inactive) | 0.37 µM (active) | 0.375 µM (active) | 1.7 µM (inactive) | 0.857 µM (active) | 1.94 µM (inactive) | 1.26 | 0.333 µM (active) | 1.03 µM (active) | 1.95 µM (inactive) | 0.64 µM (active) | 2.25 µM (inactive) | 0.368 µM (active) | 1.2 µM (inactive) | 0.31 µM (active) | 1.89 µM (inactive) | 0.908 µM (active) |  | 
4 | CCC1(CC)C(=O)NN(C(=O)c2ccccc2)C1=O | > 100 µM (inactive) | > 100 µM (inactive) | > 100 µM (inactive) | > 100 µM (inactive) | > 100 µM (inactive) | > 100 µM (inactive) | > 100 µM (inactive) | > 100 |  | > 100 µM (inactive) | > 100 µM (inactive) | > 100 µM (inactive) | > 100 µM (inactive) | > 100 µM (inactive) | > 100 µM (inactive) | > 100 µM (inactive) | 6.49 µM (inactive) | > 100 µM (inactive) | 95.7 µM (inactive) | > 100 µM (inactive)
5 | COc1cc2c3c(c1)c1cc(OC)c(OC)cc1c[n+]3CC2 | > 50 µM (inactive) | 15.5 µM (inactive) | 21.8 µM (inactive) | 2 µM (inactive) | 2.22 µM (inactive) | 3.1 µM (inactive) | > 100 µM (inactive) | > 50 | 6.12 µM (inactive) | 31.8 µM (inactive) | > 50 µM (inactive) |  | > 50 µM (inactive) | 30.6 µM (inactive) | 18.1 µM (inactive) | 25.8 µM (inactive) | 3.77 µM (inactive) | > 50 µM (inactive) | > 50 µM (inactive) | > 50 µM (inactive)
6 | CC(=O)CC(OC(C)=O)C1=CCC2C(CC1C)OC(=O)C2C (configuration not stated) | > 100 µM (inactive) | > 100 µM (inactive) | 78.9 µM (inactive) | > 100 µM (inactive) | > 100 µM (inactive) | > 100 µM (inactive) |  | > 100 | > 100 µM (inactive) | > 100 µM (inactive) | > 100 µM (inactive) | > 100 µM (inactive) | > 100 µM (inactive) | > 100 µM (inactive) | > 100 µM (inactive) | > 100 µM (inactive) | > 100 µM (inactive) | > 100 µM (inactive) | 64.9 µM (inactive) | 40.6 µM (inactive)
7 | COc1cc2c(cc1OC)C(=O)N(c1ccc(OCCN3CCCC3)cc1)C2 | > 100 µM (inactive) | > 100 µM (inactive) | > 100 µM (inactive) | > 100 µM (inactive) | > 100 µM (inactive) | > 100 µM (inactive) |  | > 100 | > 100 µM (inactive) | > 100 µM (inactive) | > 100 µM (inactive) | > 100 µM (inactive) | > 100 µM (inactive) | > 100 µM (inactive) | > 100 µM (inactive) | > 100 µM (inactive) | > 100 µM (inactive) | > 100 µM (inactive) | > 100 µM (inactive) | > 100 µM (inactive)
8 | COc1ccc(C(=O)N/N=C2\C(=O)c3c(C)cc(C)cc3CC2(C)C)cc1 | 20.8 µM (inactive) | 19.6 µM (inactive) | 18.5 µM (inactive) | 11.5 µM (inactive) | 17.1 µM (inactive) | 16.3 µM (inactive) |  | 22.8 | 20.5 µM (inactive) | 18.9 µM (inactive) | 22 µM (inactive) |  | 19.7 µM (inactive) | 36 µM (inactive) | 29.8 µM (inactive) | 17.9 µM (inactive) | 19.1 µM (inactive) | 21 µM (inactive) | 24.3 µM (inactive) | 18.3 µM (inactive)
9 | COc1cc2c(/C=C3/C(=O)Nc4ccc(O)cc43)c(Cl)n(Cc3ccccc3)c2cc1C | 0.433 µM (active) | 0.323 µM (active) | 0.356 µM (active) | 1.13 µM (inactive) | 0.69 µM (active) | 0.354 µM (active) | 3.76 µM (inactive) | 1.27 | 0.392 µM (active) | 3.73 µM (inactive) | 0.574 µM (active) |  | 6 µM (inactive) | 0.408 µM (active) | 0.818 µM (active) | 0.078 µM (active) | 0.265 µM (active) | 2.1 µM (inactive) | 0.873 µM (active) | 0.306 µM (active)
10 | CCc1n[nH]c(=O)n1CCCCCCCCCCCCn1c(CC)n[nH]c1=O | 37.2 µM (inactive) | 25.1 µM (inactive) | 19.2 µM (inactive) | 22.5 µM (inactive) | 22 µM (inactive) | 22 µM (inactive) | 30.7 µM (inactive) | 40.9 | 48.4 µM (inactive) | 52.8 µM (inactive) | 28.6 µM (inactive) | 34.5 µM (inactive) | 28.1 µM (inactive) | 27.7 µM (inactive) | 11.7 µM (inactive) | 23.1 µM (inactive) | 33.6 µM (inactive) | 47.1 µM (inactive) | 18.7 µM (inactive) | 
11 | O=C(NCCNCCNC(=O)C(F)(F)F)C(F)(F)F | > 100 µM (inactive) | > 100 µM (inactive) | > 100 µM (inactive) | > 100 µM (inactive) | > 100 µM (inactive) | > 100 µM (inactive) | > 100 µM (inactive) | > 100 |  | > 100 µM (inactive) | > 100 µM (inactive) | > 100 µM (inactive) | > 100 µM (inactive) | > 100 µM (inactive) | > 100 µM (inactive) | > 100 µM (inactive) | > 100 µM (inactive) | > 100 µM (inactive) | > 100 µM (inactive) | > 100 µM (inactive)
12 | CC(C)(C)C1CC[C@H](O)[C@H]([C@H](O)CC2CC(=O)N(c3ccccc3)C(=O)C2)C1 (some centres not stated) | > 100 µM (inactive) | 63.7 µM (inactive) | > 100 µM (inactive) | 99.3 µM (inactive) | > 100 µM (inactive) | > 100 µM (inactive) | > 100 µM (inactive) | > 100 | > 100 µM (inactive) |  | > 100 µM (inactive) | > 100 µM (inactive) | > 100 µM (inactive) | > 100 µM (inactive) | > 100 µM (inactive) | > 100 µM (inactive) | > 100 µM (inactive) | > 100 µM (inactive) | > 100 µM (inactive) | > 100 µM (inactive)
13 | COc1ccc(S(=O)(=O)Nc2ccc(-c3csc(N4C(=O)/C(=C/C=C\c5ccccc5)N=C4c4ccccc4)n3)cc2)cc1Cl | 43 µM (inactive) | 38.5 µM (inactive) | 31.8 µM (inactive) | 22.8 µM (inactive) | 28.8 µM (inactive) | 29.9 µM (inactive) | 28.3 µM (inactive) | 21.8 | 36.6 µM (inactive) | 22.6 µM (inactive) | 28.7 µM (inactive) |  | 22.9 µM (inactive) | 36.1 µM (inactive) | 33 µM (inactive) | 22.8 µM (inactive) | 29 µM (inactive) | 38.6 µM (inactive) | 20.1 µM (inactive) | 14 µM (inactive)
14 | N#CC1=C(C#N)/C(=C(\C#N)C(C#N)C#N)N=C1N | 28.5 µM (inactive) | 31.2 µM (inactive) | 25.2 µM (inactive) | 13.4 µM (inactive) | 35.6 µM (inactive) | 28.2 µM (inactive) | 35.5 µM (inactive) | 22.6 | 22.4 µM (inactive) | 14.7 µM (inactive) | 50.8 µM (inactive) | 33.4 µM (inactive) | 91.4 µM (inactive) | 46.2 µM (inactive) | 19.6 µM (inactive) | 16.9 µM (inactive) | 64.4 µM (inactive) | 33.5 µM (inactive) | 8.07 µM (inactive) | 
15 | COc1cc(O)c2c(=O)cc(-c3ccc(O)cc3O)oc2c1CC=C(C)C [ARTOCARPETIN A] | 24.3 µM (inactive) | 12.9 µM (inactive) | 4.5 µM (inactive) | 8.93 µM (inactive) | 17.1 µM (inactive) | 28.4 µM (inactive) | 17.9 µM (inactive) | 11.6 | 18.1 µM (inactive) | 17.2 µM (inactive) | 27 µM (inactive) |  | 22.1 µM (inactive) | 17.1 µM (inactive) | 28.4 µM (inactive) | 18.7 µM (inactive) | 6.12 µM (inactive) | > 100 µM (inactive) | 15.4 µM (inactive) | 10.4 µM (inactive)
